Assay: mn = molality of the nth substance listed, in mol/kg
Settings: 101.3 kPa, Liquid

COC(=O)[C@@H](N)C(C)C.Cl [methyl L-valinate hydrochloride] + O
Settings	speed of sound [m/s]
278.15 K, Frequency=2 MHz, Linear variable-path acoustic interferometer, m1 = 0.0389	1431.7
278.15 K, Frequency=2 MHz, Linear variable-path acoustic interferometer, m1 = 0.0499	1433.3
278.15 K, Frequency=2 MHz, Linear variable-path acoustic interferometer, m1 = 0.0592	1434.2
278.15 K, Frequency=2 MHz, Linear variable-path acoustic interferometer, m1 = 0.0705	1436.3
278.15 K, Frequency=2 MHz, Linear variable-path acoustic interferometer, m1 = 0.0811	1437.4
278.15 K, Frequency=2 MHz, Linear variable-path acoustic interferometer, m1 = 0.0888	1438.7
278.15 K, Frequency=2 MHz, Linear variable-path acoustic interferometer, m1 = 0.1015	1441.1
278.15 K, Frequency=2 MHz, Linear variable-path acoustic interferometer, m1 = 0.1094	1441.3
278.15 K, Frequency=2 MHz, Linear variable-path acoustic interferometer, m1 = 0.1204	1443.8
278.15 K, Frequency=2 MHz, Linear variable-path acoustic interferometer, m1 = 0.1307	1445.3
278.15 K, Frequency=2 MHz, Linear variable-path acoustic interferometer, m1 = 0.1428	1446.5
278.15 K, Frequency=2 MHz, Linear variable-path acoustic interferometer, m1 = 0.1528	1448
288.15 K, Frequency=3 MHz, Sing-around technique in a fixed-path interferometer, m1 = 0.0507	1472.3
288.15 K, Frequency=3 MHz, Sing-around technique in a fixed-path interferometer, m1 = 0.0607	1473.5
288.15 K, Frequency=3 MHz, Sing-around technique in a fixed-path interferometer, m1 = 0.0699	1474.5
288.15 K, Frequency=3 MHz, Sing-around technique in a fixed-path interferometer, m1 = 0.0798	1475.7
288.15 K, Frequency=3 MHz, Sing-around technique in a fixed-path interferometer, m1 = 0.09	1476.9
288.15 K, Frequency=3 MHz, Sing-around technique in a fixed-path interferometer, m1 = 0.0999	1478.3
288.15 K, Frequency=3 MHz, Sing-around technique in a fixed-path interferometer, m1 = 0.1099	1479.2
288.15 K, Frequency=3 MHz, Sing-around technique in a fixed-path interferometer, m1 = 0.1201	1480.4
288.15 K, Frequency=3 MHz, Sing-around technique in a fixed-path interferometer, m1 = 0.1295	1481.6
288.15 K, Frequency=3 MHz, Sing-around technique in a fixed-path interferometer, m1 = 0.1399	1482.8
288.15 K, Frequency=3 MHz, Sing-around technique in a fixed-path interferometer, m1 = 0.1497	1484.3
288.15 K, Frequency=3 MHz, Sing-around technique in a fixed-path interferometer, m1 = 0.16	1485.9
298.15 K, Frequency=3 MHz, Sing-around technique in a fixed-path interferometer, m1 = 0.0405	1501.4
298.15 K, Frequency=3 MHz, Sing-around technique in a fixed-path interferometer, m1 = 0.0504	1502.5
298.15 K, Frequency=3 MHz, Sing-around technique in a fixed-path interferometer, m1 = 0.06	1503.7
298.15 K, Frequency=3 MHz, Sing-around technique in a fixed-path interferometer, m1 = 0.0703	1504.9
298.15 K, Frequency=3 MHz, Sing-around technique in a fixed-path interferometer, m1 = 0.0804	1505.9
298.15 K, Frequency=3 MHz, Sing-around technique in a fixed-path interferometer, m1 = 0.0903	1507.1
298.15 K, Frequency=3 MHz, Sing-around technique in a fixed-path interferometer, m1 = 0.1001	1508.1
298.15 K, Frequency=3 MHz, Sing-around technique in a fixed-path interferometer, m1 = 0.1103	1509.6
298.15 K, Frequency=3 MHz, Sing-around technique in a fixed-path interferometer, m1 = 0.12	1510.3
298.15 K, Frequency=3 MHz, Sing-around technique in a fixed-path interferometer, m1 = 0.1305	1511.4
298.15 K, Frequency=3 MHz, Sing-around technique in a fixed-path interferometer, m1 = 0.1401	1513
298.15 K, Frequency=3 MHz, Sing-around technique in a fixed-path interferometer, m1 = 0.1514	1513.8

Settings	mass density [kg/m3]
278.15 K, Pycnometric method, m1 = 0.0389	1001.17
278.15 K, Pycnometric method, m1 = 0.0499	1001.51
278.15 K, Pycnometric method, m1 = 0.0592	1001.8
278.15 K, Pycnometric method, m1 = 0.0705	1002.15
278.15 K, Pycnometric method, m1 = 0.0811	1002.48
278.15 K, Pycnometric method, m1 = 0.0888	1002.72
278.15 K, Pycnometric method, m1 = 0.1015	1003.1
278.15 K, Pycnometric method, m1 = 0.1094	1003.35
278.15 K, Pycnometric method, m1 = 0.1204	1003.7
278.15 K, Pycnometric method, m1 = 0.1307	1004
278.15 K, Pycnometric method, m1 = 0.1428	1004.38
278.15 K, Pycnometric method, m1 = 0.1528	1004.7
288.15 K, Vibrating tube method, m1 = 0.0507	1000.66
288.15 K, Vibrating tube method, m1 = 0.0607	1000.96
288.15 K, Vibrating tube method, m1 = 0.0699	1001.25
288.15 K, Vibrating tube method, m1 = 0.0798	1001.55
288.15 K, Vibrating tube method, m1 = 0.09	1001.87
288.15 K, Vibrating tube method, m1 = 0.0999	1002.17
288.15 K, Vibrating tube method, m1 = 0.1099	1002.46
288.15 K, Vibrating tube method, m1 = 0.1201	1002.78
288.15 K, Vibrating tube method, m1 = 0.1295	1003.07
288.15 K, Vibrating tube method, m1 = 0.1399	1003.4
288.15 K, Vibrating tube method, m1 = 0.1497	1003.7
288.15 K, Vibrating tube method, m1 = 0.16	1004
298.15 K, Vibrating tube method, m1 = 0.0405	998.23
298.15 K, Vibrating tube method, m1 = 0.0504	998.52
298.15 K, Vibrating tube method, m1 = 0.06	998.78
298.15 K, Vibrating tube method, m1 = 0.0703	999.08
298.15 K, Vibrating tube method, m1 = 0.0804	999.37
298.15 K, Vibrating tube method, m1 = 0.0903	999.66
298.15 K, Vibrating tube method, m1 = 0.1001	999.92
298.15 K, Vibrating tube method, m1 = 0.1103	1000.24
298.15 K, Vibrating tube method, m1 = 0.12	1000.51
298.15 K, Vibrating tube method, m1 = 0.1305	1000.78
298.15 K, Vibrating tube method, m1 = 0.1401	1001.06
298.15 K, Vibrating tube method, m1 = 0.1514	1001.39

O [water] + COC(=O)[C@H](C)N.Cl
Settings	speed of sound [m/s]
278.15 K, Frequency=2 MHz, Linear variable-path acoustic interferometer, m2 = 0	1426.2

Settings	mass density [kg/m3]
278.15 K, Pycnometric method, m2 = 0	999.96
